“And” between values parts separate entries of the source, which are not always exact repeats. Equal values may be shown once. Toxic doses and inconclusive results are not listed. How the source made its calls: active means survival T/C of 150% or more; inactive means T/C below 125% in these data.
System: P388 leukemia ip, CD2F1 mice, survival T/C
Test: NCI In Vivo Anticancer Drug Screen. Data for tumor model P388 Leukemia (intraperitoneal) in CD2F1 (CDF1) mice
Conditions: endpoint: median survival time, higher = longer survival
Summary of the method: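 Mice carrying the transplanted tumor received test compound or vehicle. Survival was recorded in each group, and the value is the treated-group measurement divided by that of the vehicle-treated control group.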

[1] = dose: 100.0 mg/kg/injection, schedule: Q01DX001 (ip), vehicle: saline
[2] = dose: 200.0 mg/kg/injection, schedule: Q01DX001 (ip), vehicle: saline
[3] = dose: 400.0 mg/kg/injection, schedule: Q01DX001 (ip), vehicle: saline
[4] = dose: 50.0 mg/kg/injection, schedule: Q01DX009 (ip), vehicle: saline
[5] = dose: 50.0 mg/kg/injection, schedule: Q01DX009 (ip), vehicle: Klucel (hydroxypropylcellulose) (HPC)
[6] = dose: 100.0 mg/kg/injection, schedule: Q01DX009 (ip), vehicle: Klucel (hydroxypropylcellulose) (HPC)
[7] = dose: 200.0 mg/kg/injection, schedule: Q01DX009 (ip), vehicle: Klucel (hydroxypropylcellulose) (HPC)
[8] = dose: 50.0 mg/kg/injection, schedule: Q01DX005 (ip), vehicle: Klucel (hydroxypropylcellulose) (HPC)
[9] = dose: 100.0 mg/kg/injection, schedule: Q01DX005 (ip), vehicle: Klucel (hydroxypropylcellulose) (HPC)
[10] = dose: 100.0 mg/kg/injection, schedule: Q04DX003 (ip), vehicle: saline with Tween-80
[11] = dose: 200.0 mg/kg/injection, schedule: Q04DX003 (ip), vehicle: saline with Tween-80

Measured: T/C

COCC1(C)CCCC2(C)C1CCC13CCC(O)CC12O3 (stereo not drawn)
inactive: [1] 105 % of control | [2] 105 % of control | [3] 103 % of control

NCC(=O)O
inactive: dose: 3.75 mg/kg/injection, schedule: Q01DX005 (ip), vehicle: saline 99 % of control | dose: 7.5 mg/kg/injection, schedule: Q01DX005 (ip), vehicle: saline 100 % of control | dose: 15.0 mg/kg/injection, schedule: Q01DX005 (ip), vehicle: saline 99 % of control and 94 % of control | [4] 94 % of control | dose: 100.0 mg/kg/injection, schedule: Q01DX009 (ip), vehicle: saline 105 % of control | dose: 200.0 mg/kg/injection, schedule: Q01DX009 (ip), vehicle: saline 110 % of control

CCOC(=O)C(NC(=O)c1ccccc1)(C(=O)OCC)c1ccccn1
inactive: dose: 60.0 mg/kg/injection, schedule: Q01DX005 (ip), vehicle: saline 99 % of control | dose: 120.0 mg/kg/injection, schedule: Q01DX005 (ip), vehicle: saline 99 % of control | dose: 240.0 mg/kg/injection, schedule: Q01DX005 (ip), vehicle: saline 105 % of control

COC(=O)C1=C(OC)C(C(=O)c2ccccc2)NC1=O (stereo not drawn)
inactive: dose: 60.0 mg/kg/injection, schedule: Q01DX005 (ip), vehicle: saline with Tween-80 111 % of control | dose: 120.0 mg/kg/injection, schedule: Q01DX005 (ip), vehicle: saline with Tween-80 100 % of control | dose: 240.0 mg/kg/injection, schedule: Q01DX005 (ip), vehicle: saline with Tween-80 99 % of control

CCCCCCCCCCCCC1=C(O)C(=O)C=C(O)C1=O
inactive: dose: 12.5 mg/kg/injection, schedule: Q01DX005 (ip), vehicle: suspension in saline 102 % of control | dose: 25.0 mg/kg/injection, schedule: Q01DX005 (ip), vehicle: suspension in saline 108 % of control | dose: 50.0 mg/kg/injection, schedule: Q01DX005 (ip), vehicle: saline 99 % of control | dose: 50.0 mg/kg/injection, schedule: Q01DX005 (ip), vehicle: suspension in saline 112 % of control

Cln1c2c(c3ccccc31)CN(Cc1ccccc1)CC2
inactive: [5] 105 % of control | [6] 106 % of control | [7] 97 % of control

COC(=O)C1C(NCc2ccccc2)=CC(C)(C)C(C(=O)OC)C1c1ccccc1 (stereo not drawn)
inactive: [8] 103 % of control | [9] 100 % of control | dose: 200.0 mg/kg/injection, schedule: Q01DX005 (ip), vehicle: Klucel (hydroxypropylcellulose) (HPC) 97 % of control

C/C(=N\OCC(O)CNCCNC(=O)C(C)C)c1ccc(N(C)C)cc1 (stereo not drawn)
inactive: dose: 60.0 mg/kg/injection, schedule: Q01DX005 (ip), vehicle: Klucel (hydroxypropylcellulose) (HPC) 98 % of control | dose: 120.0 mg/kg/injection, schedule: Q01DX005 (ip), vehicle: Klucel (hydroxypropylcellulose) (HPC) 99 % of control

CSc1nccc(=O)n1-c1ccccc1Cl
inactive: [10] 109 % of control | [11] 114 % of control

Cc1ccnc(NC2=CC(=O)C(=O)c3ccccc32)c1
inactive: dose: 37.5 mg/kg/injection, schedule: Q01DX009 (ip), vehicle: saline sonified 122 % of control

COC(=O)NN(C(=O)OC)C12CCCC1N(C(=O)OC)N(C(=O)OC)c1c2ccc2cc(OC)ccc12 (stereo not drawn)
inactive: dose: 100.0 mg/kg/injection, schedule: Q04DX002 (ip), vehicle: Klucel (hydroxypropylcellulose) (HPC) 99 % of control | dose: 200.0 mg/kg/injection, schedule: Q04DX002 (ip), vehicle: Klucel (hydroxypropylcellulose) (HPC) 92 % of control | dose: 400.0 mg/kg/injection, schedule: Q04DX002 (ip), vehicle: Klucel (hydroxypropylcellulose) (HPC) 90 % of control

O=S(=O)(NCCSSCCNS(=O)(=O)c1cccc2cccnc12)c1cccc2cccnc12
inactive: [5] 100 % of control | [6] 89 % of control | [7] 91 % of control

Nc1nc2[nH]c(=O)[nH]c2c(=O)[nH]1
inactive: dose: 50.0 mg/kg/injection, schedule: Q01DX005 (ip), vehicle: saline with Tween-80 94 % of control | dose: 100.0 mg/kg/injection, schedule: Q01DX005 (ip), vehicle: saline with Tween-80 93 % of control | dose: 200.0 mg/kg/injection, schedule: Q01DX005 (ip), vehicle: saline with Tween-80 91 % of control

COc1cc(O)cc2c1CCC(c1ccccc1)O2 (stereo not drawn)
inactive: dose: 1.8 mg/kg/injection, schedule: Q01DX005 (ip), vehicle: Klucel + Tween-80 107 % of control | dose: 3.5 mg/kg/injection, schedule: Q01DX005 (ip), vehicle: Klucel + Tween-80 107 % of control | dose: 7.0 mg/kg/injection, schedule: Q01DX005 (ip), vehicle: Klucel + Tween-80 97 % of control | dose: 14.0 mg/kg/injection, schedule: Q01DX005 (ip), vehicle: Klucel + Tween-80 100 % of control

CN(C)c1ccc(N=Cc2cc[n+](C)cc2)cc1
inactive: dose: 6.25 mg/kg/injection, schedule: Q01DX009 (ip), vehicle: saline 114 % of control | dose: 12.5 mg/kg/injection, schedule: Q01DX009 (ip), vehicle: saline 101 % of control | dose: 25.0 mg/kg/injection, schedule: Q01DX009 (ip), vehicle: saline 105 % of control | dose: 25.0 mg/kg/injection, schedule: Q04DX003 (ip), vehicle: saline 100 % of control | [4] 111 % of control | dose: 50.0 mg/kg/injection, schedule: Q04DX003 (ip), vehicle: saline 107 % of control | dose: 100.0 mg/kg/injection, schedule: Q04DX003 (ip), vehicle: saline 107 % of control

Cc1ncc([N+](=O)[O-])n1CCOC(=O)c1ccc(Cl)cc1
inactive: [5] 102 % of control | [6] 100 % of control | [7] 98 % of control

CC(C)(N)COC(=O)c1ccccc1C(=O)O
inactive: [1] 90 % of control | [2] 95 % of control | [3] 104 % of control

O=Nc1c(O)c2ccccc2c2ccccc12
inactive: dose: 25.0 mg/kg/injection, schedule: Q01DX005 (ip), vehicle: Klucel (hydroxypropylcellulose) (HPC) 102 % of control | [8] 102 % of control | [9] 112 % of control

COC(=O)C1CC2CCCCC2C1C(=O)OC (stereo not drawn)
inactive: dose: 100.0 mg/kg/injection, schedule: Q04DX003 (ip), vehicle: Klucel (hydroxypropylcellulose) (HPC) 89 % of control | dose: 200.0 mg/kg/injection, schedule: Q04DX003 (ip), vehicle: Klucel (hydroxypropylcellulose) (HPC) 87 % of control | dose: 400.0 mg/kg/injection, schedule: Q04DX003 (ip), vehicle: Klucel (hydroxypropylcellulose) (HPC) 89 % of control

O=C1OC(c2ccccc2)CC1N1CCOCC1 (stereo not drawn)
inactive: dose: 100.0 mg/kg/injection, schedule: Q01DX009 (ip), vehicle: saline with Tween-80 100 % of control | dose: 100.0 mg/kg/injection, schedule: Q04DX003 (ip), vehicle: saline sonified 100 % of control | dose: 200.0 mg/kg/injection, schedule: Q01DX009 (ip), vehicle: saline with Tween-80 100 % of control | dose: 400.0 mg/kg/injection, schedule: Q01DX009 (ip), vehicle: saline with Tween-80 100 % of control | dose: 400.0 mg/kg/injection, schedule: Q04DX003 (ip), vehicle: saline sonified 89 % of control

CCOC(=O)/N=c1/nc2ccn(C)c2c(NC(=O)OCC)s1
inactive: [10] 99 % of control | [11] 96 % of control | dose: 400.0 mg/kg/injection, schedule: Q04DX003 (ip), vehicle: saline with Tween-80 96 % of control

CCCCCCCCC(Cn1ccnc1)c1ccc(F)cc1 (stereo not drawn)
inactive: dose: 50.0 mg/kg/injection, schedule: Q04DX003 (ip), vehicle: saline with Tween-80 106 % of control | [10] 100 % of control and 103 % of control | [11] 100 % of control

Reference: PubChem BioAssay AID330 (DTP/NCI, 2004)
